# Measurements from US10945994B2, “Combinations comprising a pyrrolidine-2,5-dione IDO1 inhibitor and an anti-body” (Pfizer Inc., priority 2015, dated 2021).
# Read-outs that look alike come from different tables or passages of the source.
# Key:
# [1] = molecular target: T1, IDO1 (Homo sapiens (Human), UniProt P14902); experiment: IDO1 enzymatic activity by mass spectrometry assay; assay type: biochemical; conditions: human enzyme; varied tryptophan and inhibitor concentrations
# Experimental: (§1) The full length complementary deoxyribonucleic acid (cDNA) for human IDO1 was cloned into a pFastbac-1 based vector and the full length cDNA for mouse and dog was cloned into a pET24a based vector. […] Human IDO1 was expressed in insect cells and purified using Ni affinity column. The mouse and dog IDO1 were expressed in Escherichia coli BL21 (DE3) and purified using a Ni affinity column. To obtain non-tagged, pure, and hemin loaded IDO1, TEV protease treated and tag removed protein was incubated with 10× molar ratio of hemin (dissolved in 25 mM NaOH) to protein at 4° C. overnight followed by size exclusion chromatography (SEC) for human IDO1 and anion exchange and SEC for mouse and dog IDO1.
# The inhibition of human, dog and mouse IDO1 was measured by quantitating tryptophan and the generation of kynurenine by MS. […] The HCl stops the enzyme reactions and also converts the N-formyl kynurenine to kynurenine. […] Detection of tryptophan and kynurenine was accomplished following injection of assay reaction (injection loop volume is 10 μL) onto an Agilent Graphite Type D cartridge in 0.01% trifluoroacetic acid (TFA) plus 0.09% formic acid and eluted using 80% acetonitrile, 0.09% formic acid and 0.01% TFA. […]
# [2] = molecular target: dog IDO1 (Canis lupus familiaris, UniProt A0A8I3N1Y1); experiment: IDO1 enzymatic activity by mass spectrometry assay; assay type: biochemical; conditions: dog enzyme; varied tryptophan and inhibitor concentrations
# Sequence of dog IDO1 (A0A8I3N1Y1 1-402): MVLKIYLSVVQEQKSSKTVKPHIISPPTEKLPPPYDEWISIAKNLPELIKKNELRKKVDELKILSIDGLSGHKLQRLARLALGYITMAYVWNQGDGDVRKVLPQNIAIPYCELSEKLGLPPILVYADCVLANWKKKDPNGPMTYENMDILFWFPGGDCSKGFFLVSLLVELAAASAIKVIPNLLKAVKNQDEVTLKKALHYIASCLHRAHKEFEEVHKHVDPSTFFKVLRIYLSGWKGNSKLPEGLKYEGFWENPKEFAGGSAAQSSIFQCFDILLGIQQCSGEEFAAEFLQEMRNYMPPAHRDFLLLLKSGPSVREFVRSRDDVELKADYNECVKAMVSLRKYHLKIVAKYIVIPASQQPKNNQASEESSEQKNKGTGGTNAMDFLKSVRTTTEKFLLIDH
# Experimental: as §1
# (§2) The inhibition of human, dog and mouse IDO1 was measured by quantitating tryptophan and the generation of kynurenine by MS. IDO1 enzyme (1 nM) was incubated with various concentrations of the inhibitor ([…] to 1 nM), in duplicate, at room temperature in […] buffer (Mg2+, Ca2+−PBS, 20 mM ascorbic acid, 10 mM methylene blue, 800 nM catalase, […]). […] The HCl stops the enzyme reactions and also converts the N-formyl kynurenine to kynurenine. […] Detection of tryptophan and kynurenine was accomplished following injection of assay reaction (injection loop volume is 10 μL) onto an Agilent Graphite Type D cartridge in 0.01% trifluoroacetic acid (TFA) plus 0.09% formic acid and eluted using 80% acetonitrile, 0.09% formic acid and 0.01% TFA. The finalized RapidFire settings were as follows: aspiration time: 600 ms or until the loop is full per the sip sensor, load time: 5000 ms, elution time: 5000 ms, and re-equilibration time: 500 ms at a flow rate of 1.5 mL/min.
# [3] = molecular target: mouse IDO1 (Mus musculus (Mouse), UniProt P28776); experiment: IDO1 enzymatic activity by mass spectrometry assay; assay type: biochemical; conditions: MS assay; geometric mean (95% confidence interval); read-out: Enzyme Activity IC50 mouse IDO1
# Sequence of mouse IDO1 (P28776 whole entry): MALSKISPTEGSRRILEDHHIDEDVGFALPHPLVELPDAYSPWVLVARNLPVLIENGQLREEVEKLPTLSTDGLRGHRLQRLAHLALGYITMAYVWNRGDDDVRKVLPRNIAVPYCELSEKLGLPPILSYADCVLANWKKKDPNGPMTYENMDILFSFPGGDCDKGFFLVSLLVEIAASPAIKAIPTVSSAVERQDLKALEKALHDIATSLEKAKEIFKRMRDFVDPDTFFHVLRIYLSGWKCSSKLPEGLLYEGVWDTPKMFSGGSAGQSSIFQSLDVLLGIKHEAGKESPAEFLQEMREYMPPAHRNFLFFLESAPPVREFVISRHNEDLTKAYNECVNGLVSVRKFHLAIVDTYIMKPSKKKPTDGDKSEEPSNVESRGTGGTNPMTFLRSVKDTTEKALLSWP
# Experimental: as §1, §2
# [4] = molecular target: T2, TDO2 (Homo sapiens (Human), UniProt P48775); experiment: Human TDO2 enzymatic assay; assay type: biochemical
# T2 sequence (P48775 whole entry): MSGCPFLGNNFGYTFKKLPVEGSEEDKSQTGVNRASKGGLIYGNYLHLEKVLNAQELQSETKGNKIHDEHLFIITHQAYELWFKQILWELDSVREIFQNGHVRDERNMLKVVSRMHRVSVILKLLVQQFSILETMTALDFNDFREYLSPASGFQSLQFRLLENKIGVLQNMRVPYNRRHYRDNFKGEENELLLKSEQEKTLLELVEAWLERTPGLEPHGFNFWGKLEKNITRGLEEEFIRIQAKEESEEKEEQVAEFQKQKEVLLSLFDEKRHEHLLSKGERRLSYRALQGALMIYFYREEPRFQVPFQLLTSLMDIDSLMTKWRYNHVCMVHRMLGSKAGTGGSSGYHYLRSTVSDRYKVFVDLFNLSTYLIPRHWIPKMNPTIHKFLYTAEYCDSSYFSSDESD
# Experimental: The protocol was adapted from Dolusic et al, 2011. Briefly, the reaction mixture ([…]) contained TRIS buffer (50 mM, pH 7.5), methylene blue (0.125 mM), ascorbic acid (0.25 M), catalase (40 units/mL) and human recombinant TDO2 enzyme (prepared as described in Dolusic et al, 2011; 0.9 mg) with increasing concentrations of compounds (1.0 nM to […]). The reaction was run with single replicate. The reaction was initiated by the addition of the substrate L-tryptophan (1 mM).
# [5] = molecular target: mouse TDO2 (Mus musculus (Mouse), UniProt P48776); experiment: TDO2 activity assay in P815 mouseTDO2 clone 12 cells; assay type: cell-based
# Sequence of mouse TDO2 (P48776 whole entry): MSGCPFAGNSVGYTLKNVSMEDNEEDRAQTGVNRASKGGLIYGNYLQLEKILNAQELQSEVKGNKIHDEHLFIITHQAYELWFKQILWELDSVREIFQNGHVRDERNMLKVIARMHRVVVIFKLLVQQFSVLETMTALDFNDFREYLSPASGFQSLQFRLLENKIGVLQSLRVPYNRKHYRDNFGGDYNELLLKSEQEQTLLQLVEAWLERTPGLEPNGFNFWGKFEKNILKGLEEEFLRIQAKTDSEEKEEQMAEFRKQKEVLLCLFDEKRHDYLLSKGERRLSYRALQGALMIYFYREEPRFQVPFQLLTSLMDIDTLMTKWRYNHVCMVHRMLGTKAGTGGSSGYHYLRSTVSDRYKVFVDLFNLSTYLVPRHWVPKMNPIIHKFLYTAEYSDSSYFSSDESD
# Experimental: P815 mTDO2 c112 cells were generated as described in Pilotte et al, Proc Natl Acad Sci, 109(7): 2497-2502 (2012). They were seeded in 96-well plates (50,000 cells/well), treated with increasing concentrations of compounds and incubated for 16-18 h. Kynurenine concentrations were determined as described above. The reaction was run with single replicate.
# [6] = molecular target: T2, TDO2; experiment: TDO2 activity assay in A172 and THP-1 cells; assay type: cell-based; conditions: for A172 and THP-1 cells TDO2 inhibition: @50 μM; for inhibitory activity in any of the human or mouse TDO2 assays: human biochemical and cellular, murine cellular, concentrations of up to 50 μM
# Experimental: A172 cells were seeded in 96-well plates (12500 cells/well), treated with increasing concentrations of compounds and incubated for 16-18 h at 37° C., 5% CO2. Then TCA was added to the supernatant to stop the reaction. […] Kynurenine concentrations were determined by measuring absorbance at 480 nm. The reaction was run with single replicate.
# THP-1 cells were stimulated with 2 ng/ml PMA for 24 h, then seeded in 96-well plates (100,000 cells/well), treated with 2 ng/ml PMA and increasing concentrations of compounds, and incubated for 24 h. Kynurenine concentrations were determined as described above. The reaction was run with single replicate.
# [7] = molecular target: T1, IDO1; experiment: Human whole blood assay (+ IFNγ/LPS); assay type: cell-based; conditions: read-out: unbound IC90, human whole blood
# Experimental: Human whole blood was collected in sodium heparin and gently mixed. Then 25 mg/mL LPS (Sigma) and 100 ng/mL. IFNg (R&D) was added and transferred immediately to a 96-well U bottom plate, 200 mL per well. […] The final DMSO concentration was 0.5%. Following overnight incubation at 37° C., a 30 mL aliquot was precipitated with 270 mL acetonitrile/HPLC water (70:30), vortexed vigorously, and centrifuged at 3220×g for 15 minutes at 10° C. An aliquot of the supernatant organic solution was diluted in 0.1% Formic acid and spiked with stable labeled isotopes of kynurenine and tryptophan as internal standards prior to analysis. Kynurenine inhibition was determined by dividing the drug treated internal standard adjusted kynurenine counts by the positive control internal standard adjusted value. The no drug treated sample containing DMSO was used as the positive control. […] The IC50 and IC90 calculations were conducted in GraphPad Prism version 6.03.
# In order to determine compound potency in a human cellular system, human whole blood was collected from 9 subjects. […] The unbound inhibitor IC50 and IC90 values were computed by applying a conversion for the unbound fraction value in whole blood, 0.419.
# [8] = system: 4T1 breast cancer cells; experiment: In vivo efficacy in 4T1 breast cancer syngeneic model; parameters: species or system Balb/c mice; conditions: 100 mg/kg BID oral
# Experimental: In vivo efficacy studies were performed on 4T1 syngeneic tumor model of Balb/c mice implanted orthotopically in the mammary gland. One hundred thousand 4T1 breast cancer cells (ATCC® CRL-2539™)] were implanted orthotopically within the mammary gland of 7 weeks old Balb/c mice (day 0). Animals were randomized based on tumor size when tumor average reached 60 mm^3 (between day 7 and 11) into different treatment cohorts. The test compound was administered orally twice per day (approximately at 9 am and […]) starting the day of randomization. The test compounds were suspended into Methocel™ cellulose ether vehicle and sonicated before oral administration to animals using gavage needles. Treatment was administered daily until the end of the study. All experimental animals were monitored for body weight changes twice weekly. Tumor volume was measured twice a week by a caliper device and calculated with the following formula: Tumor volume=0.5×(length×width^2). Studies were terminated before tumor volumes reached […]. TGI (% tumor growth inhibition) was determined as […]
# [9] = system: PancO2 pancreas cancer cells; experiment: In vivo efficacy in PancO2 pancreatic cancer syngeneic model; parameters: species or system C57/Bl6 mice; conditions: 200 mg/kg BID oral
# Experimental: In vivo efficacy studies were performed on PancO2 syngeneic tumor model of C57/Bl6 mice implanted sub-cutaneously. Five millions PancO2 pancreas cancer cells were implanted sub-cutaneously to 7 weeks old C57/Bl6 mice (day 0). Animals were randomized based on tumor size when tumor average reached 60 mm^3 (between day 10 and 12) into different treatment cohorts. The Compound was administered orally twice per day (approximately at 9 am and 5 pm) starting the day of randomization. The test compound shown below in the table was suspended into Methocel® vehicle and sonicated before oral administration to animals using gavage needles. Treatment was administered daily until the end of the study. All experimental animals were monitored for body weight changes weekly. Tumor volume was measured weekly using a caliper device and calculated with the following formula: Tumor volume=0.5×(length×width^2). Studies were terminated before tumor volumes reached […]. TGI (% tumor growth inhibition) was determined as
# Treatment was administered daily until the end of the study. Tumor volume was measured weekly using a caliper device and calculated with the following formula: Tumor volume=0.5×(length×width^2). Mice were considered as dead when tumor size reached 400 mm^3. […] SEM refers to standard error of measurement.
# [10] = system: CT26 tumors; experiment: CT26 syngeneic colon tumor model, combination with avelumab; assay type: in vivo, Balb/c mice; conditions: for % TGI (D15) / % TGI (D17) / % TGI (D20): Compound 1 200 mg/kg BID, Avelumab 10 mg/kg
# Text: FIGS. 5A-5E show combinatorial anti-tumor effects of an IDO1 inhibitor and an anti-PD-L1 (avelumab) in the sc CT26 syngeneic mouse colon tumor model in Balb/c mice. […] FIGS. 5B-5E show the individual tumor growth curves.
# Avelumab is a fully human anti-PD-L1 IgG1 monoclonal antibody, and thus, is not optimized for mouse.
# [11] = system: B16-F10 cells; experiment: B16-F10 melanoma model, combination with anti-PD-L1 and anti-4-1BB; assay type: in vivo, C57BL/6J mice; conditions: PF-06840003 600 mg/kg BID, anti-4-1BB 1 mg/kg, anti-PD-L1 10 mg/kg d9, 12, 15, 18
# Experimental: B16-F10 cells were obtained from the ATCC and grown following instructions on ATCC's website. 2×10^5 cells were implanted in […] PBS sc in the right flank of female C57BL/6J (Jackson labs) mice. Mice (n=20) were randomized into treatment groups and treatment initiated on day 9 after implant at a mean tumor size of 60 mm3. Antibody treatments were given as i.p. injection on day 9, 12, 15 and 18. anti-PD-L1 antibody (clone 10F.9G2; rat IgG2b) was purchased from BioxCell. anti-4-1BB antibody (MAB9371; rat IgG1—murinized) was purchased from R&D systems. […] All animal experimentation was approved in advance by and executed following Pfizer's IACUC.
# [12] = system: panel of receptors, ion channels, transporters and enzymes (64 targets in total); experiment: Cerep Wide Ligand Profile Screen; conditions: initial concentration of 200 μM
# Experimental: Three hits were noted (defined by a response greater that 50% of a maximal response) and follow up curves were performed by Cerep.
# [13] = Passive permeability in RRCK cells; assay type: in vitro ADME, canine; conditions: dog, MDCK, read-out: intrinsic permeability, apical to basolateral (A to B)
# Experimental: In vitro Absorption: passive permeability was evaluated in Ralph-Russ canine kidney (RRCK) cells; high intrinsic permeability with an apical to basolateral (A to B) value of 25.5×10^−6 cm/sec. CNS Penetration: CNS distribution was investigated in male rats.
# [14] = system: IDO1-expressing SKOV3 cells co-cultured with human PBMC; experiment: T cell - SKOV3 co-culture assay with human serum (II.9); assay type: cell-based; conditions: SK-OV-3, read-out: T-cell proliferation in SKOV3 co-culture system (50% serum) IDO1 IC50 ± SD (n)
# Experimental: Three different concentrations of human serum (10%, 25% or 50%) were used to mimic the consequences of protein binding in human. […] T cell proliferation was measured by incorporation of ^3H-thymidine after 48 h of co-culture. IC50 of T cell proliferation, tryptophan (Trp) decrease and kynurenine (Kyn) increase were determined. FIG. 7D illustrates Trp to Kyn conversion in 10% HS. […] FIG. 7F illustrates Trp to Kyn conversion in 50% HS. Tryptophan and kynurenine concentrations in supernatant were assessed using LC-MS/MS after 24 h of co-culture. […]
# Human peripheral blood mononuclear cells were isolated from buffy coats, purified by density gradient centrifugation on Lymphoprep™ (StemCell), stimulated with CD3/CD28 beads (Invitrogen) and hIL-2 (Novartis) in IMDM with 10%, 25% or 50% of HS, for 15 min and then added to the SKOV3 plates. […] After an incubation of 24 h, the tryptophan and kynurenine concentrations in conditioned medium were assessed using LC-MS/MS. ^3H-thymidine was added to the co-cultures for another 24 h incubation period. Thymidine incorporation was measured using a TopCount counter (Perkin Elmer). Data were fitted and IC50 determined by using the Prism™ software (GraphPad software Inc.).
# [15] = system: PancO2 pancreas cancer cells; experiment: PancO2 syngeneic model survival, combination with anti-CTLA4 antibody; assay type: in vivo, C57/Bl6 mice; conditions: dead when tumor size reached 400 mm^3, anti-CTLA4 200 μg i.p., Compound 2 100 mg/kg BID
# Experimental: In vivo efficacy studies of IDO1 inhibitor were performed on PancO2 syngeneic tumor model of C57/Bl6 mice implanted sub-cutaneously essentially as described in Example II.5. Five million PancO2 pancreas cancer cells were implanted sub-cutaneously to 7 weeks old C57/Bl6 mice (day 0). […] Anti-CTLA4 (Clone 9 h10, 200 μg/mouse, i.p. in PBS) was administered at day 11, 14 and 17. […] Treatment was administered daily until the end of the study. Tumor volume was measured weekly using a caliper device and calculated with the following formula: Tumor volume=0.5×(length×width^2). Mice were considered as dead when tumor size reached 400 mm^3.
# T1 sequence (P14902 whole entry): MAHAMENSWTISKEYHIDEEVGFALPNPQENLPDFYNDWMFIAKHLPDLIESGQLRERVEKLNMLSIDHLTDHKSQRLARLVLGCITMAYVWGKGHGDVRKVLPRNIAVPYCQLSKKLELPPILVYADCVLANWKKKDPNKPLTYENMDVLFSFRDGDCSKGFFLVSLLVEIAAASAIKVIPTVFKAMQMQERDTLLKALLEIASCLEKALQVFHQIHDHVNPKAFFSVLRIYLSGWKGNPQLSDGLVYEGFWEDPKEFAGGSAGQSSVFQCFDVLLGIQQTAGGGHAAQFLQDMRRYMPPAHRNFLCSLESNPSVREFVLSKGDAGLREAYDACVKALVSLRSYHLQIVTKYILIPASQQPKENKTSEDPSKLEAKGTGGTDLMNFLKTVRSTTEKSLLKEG
Molecule,"mechanism of inhibition, preferred model fit [1]","mechanism of inhibition, preferred model fit [2]",IC50 [3] [nM],IC50 [4] [µM],IC50 [5] [µM],A172 and THP-1 cells TDO2 inhibition [6],inhibitory activity in any of the human or mouse TDO2 assays [6],% TGI (D15) [10] [%],% TGI (D17) [10] [%],% TGI (D20) [10] [%],other results
"O=C1CC(c2c[nH]c3ccc(F)cc23)C(=O)N1 (racemic) [Compound 1, 3-(5-fluoro-1H-indol-3-yl)pyrrolidine-2,5-dione]",uncompetitive inhibition,noncompetitive inhibition,1500,> 50,> 50,no inhibition,did not display any significant inhibitory activity,38,41,34,IC90 [7]: 10.7 µM; Mean tumor volume on day 25 [8]: 443.7 mm^3; TGI (Tumor growth inhibition) ([8]; day 25): 43.4%; Mean tumor volume on day 42 [9]: 457.0 mm^3; TGI (Tumor growth inhibition) ([9]; day 42): 26.2%; % TGI (D17) [11]: 32%; % TGI (D20) [11]: 49%; hits (response greater than 50% of a maximal response) in off target panel [12]: Three; Papp A→B [13]: 25.5 ×10⁻⁶ cm/s
"O=C1C[C@H](c2c[nH]c3ccc(F)cc23)C(=O)N1 [Compound 2, (−)-(R)-3-(5-fluoro-1H-indol-3-yl)pyrrolidine-2,5-dione]",uncompetitive inhibition,noncompetitive inhibition,730,> 50,> 50,no inhibition,did not display any significant inhibitory activity,,,,IC50 [14]: 80 ± 50 nM; IC90 ([7]; conversion with unbound fraction in whole blood 0.419): 5.69 µM; % Survival at Day 55 [15]: 0%
Avelumab: fully human anti-PD-L1 IgG1 monoclonal antibody,,,,,,,,54,59,51,"tumor growth inhibition (TGI), summary [10]: about 50%"
